Like-named read-outs stand apart in the source and are kept apart here.
Tests used:
[1] = Plasma concentrations after single application of 4.4% oxybutynin topical gel to the abdomen; assay type: in vivo, human; conditions: single 3 g of 4.4% oxybutynin gel, 400 cm^2 abdomen; for time over which mean plasma levels increased steadily to Cmax: 'during the following' hours
Text: (§1) A clinical study in 22 healthy volunteers, 19 to 45 years of age, evaluated plasma concentrations of oxybutynin and the N-desethyloxybutynin metabolite after a single topical application of oxybutynin gel. The study employed a single dose design to evaluate the pharmacokinetics and skin tolerability of a gel formulation for oxybutynin hydrochloride.
(§2) Volunteers received a single topical administration of 3 g of 4.4% oxybutynin gel to a 400 cm^2 area of unbroken skin on the abdomen. Blood samples were periodically collected throughout the study period and plasma was harvested according to standard procedures. Plasma oxybutynin and N-desethyloxybutynin metabolite concentrations were estimated using a high performance liquid chromatography-tandem mass spectrometry method performed according to established guidelines.

[2] = Plasma concentrations after single application of 13.2% oxybutynin topical gel to the abdomen; assay type: in vivo, human; conditions: single 1 g of 13.2% oxybutynin gel, 133 cm^2 abdomen; for time over which mean plasma levels increased steadily to Cmax: 'during the following' hours
Text: as §1
as §2, with “1” for “3”, “13.2%” for “4.4%”, “133” for “400”

[3] = Single and multiple dose pharmacokinetics after oxybutynin gel administration; assay type: in vivo, human; conditions: for mean Cmax: 72 hour evaluation; for half-life: read-out: elimination half-life (converted)
Description: A clinical study in 20 healthy volunteers, 20 to 44 years of age, evaluated the single and multiple dose pharmacokinetics of oxybutynin and N-desethyloxybutynin following topical oxybutynin gel administration. The study employed a two-period multiple dose study.
In the first treatment period, volunteers received a topical administration of 3 g of 4.4% oxybutynin gel followed by a 72 hour evaluation period. The second treatment period, oxybutynin gel was administered topically to the volunteers on 7 consecutive mornings. The two treatment periods were separated by a 7-day washout period. Blood samples were periodically collected throughout the study periods and plasma was harvested according to standard procedures. Plasma oxybutynin and N-desethyloxybutynin metabolite concentrations were estimated using high performance liquid chromatography-tandem mass spectrometry method performed according to established guidelines.
After a 7-day washout following the initial gel application, subjects applied daily 3 g doses of oxybutynin gel to rotating body sites (abdomen, upper arms, thighs) for 7 consecutive days. Plasma samples were drawn each morning before the next gel application.

[4] = Single-dose pharmacokinetics after oxybutynin gel on 400 cm^2 and 800 cm^2 application areas on the thighs; assay type: in vivo, human; conditions: 3 g of 4.4% oxybutynin gel; for Cmax: at 48 hours
Text: A clinical study in 21 healthy volunteers, 21 to 45 years of age, evaluated the effect of application surface area on the single-dose pharmacokinetic of oxybutynin following topical oxybutynin gel administration. The study employed a two-period, open-labeled, randomized crossover design to evaluate the effect of application surface area on the single dose pharmacokinetics and safety of a topical gel formulation of oxybutynin hydrochloride.
Volunteers received topical administrations of 3 g of 4.4% oxybutynin gel at the beginning of two 72 hour treatment periods, with a minimum six day washout separating the treatment periods. Each volunteer received a dose applied to a 400 cm^2 area in one treatment period, and a dose to an 800 cm^2 area the other treatment period. The sequential order of the treatment periods was randomized. Blood samples were periodically collected throughout the study periods and plasma was harvested according to standard procedures. Plasma oxybutynin and N-desethyloxybutynin metabolite concentrations were evaluated using high performance liquid chromatography-tandem mass spectrometry method performed according to established guidelines.

[5] = Plasma concentrations after single and repeated application of 4.4% oxybutynin gel to the abdomen; assay type: in vivo; conditions: human, topical, once daily
Text: as §1, with “in 12” for “in 22”, “to 41” for “to 45”, “after” for “after a”, “single and repeated” for “single”, “topical applications” for “topical application”, “a single-period, open-label, multiple” for “a single”
as §2, with “received” for “received a single”, “topical administrations” for “topical administration”, “gel on 3 consecutive mornings. Each volunteer received the oxybutynin gel administrations on” for “gel to”, “a defined” for “a 400 cm^2”, “using” for “using a”

[6] = plasma, first period: single 3 g of 4.4% oxybutynin gel
[7] = second period: 7 consecutive daily 3 g gel applications
[8] = 400 cm^2 application area, thighs
[9] = 800 cm^2 application area, thighs
[10] = human, topical, plasma, read-out: elimination half-life (converted)
[11] = first period: single 3 g of 4.4% oxybutynin gel
[12] = second period, after the final of 7 daily gel applications

Compound: CCNCC#CCOC(=O)C(O)(c1ccccc1)C1CCCCC1 (stereo not shown) [N-desethyloxybutynin]
- elimination half-life ([1]; plasma): approximately 26.81 hours
- time of second plasma peak after dosing [1]: approximately 48 hours
- mean maximum plasma concentration (Cmax) ([1]; healthy volunteers): 2.20 ng/mL
- time at which measurable plasma levels were detectable (first sampling point) ([1]; healthy volunteers): 2 h
- time over which mean plasma levels increased steadily to Cmax [1]: 28 h
- elimination half-life ([2]; plasma): 19.53 h
- mean Cmax ([2]; plasma, healthy volunteers): 1.12 ng/mL
- time of second plasma peak after dosing [2]: approximately 48 hours
- time at which measurable plasma levels were detectable (first sampling point) ([2]; healthy volunteers): 2 h
- time over which mean plasma levels increased steadily to Cmax [2]: 28 h
- mean Cmax [3, 6]: 4.50 ng/mL
- mean AUC ([3]; plasma, first period: single 3 g of 4.4% oxybutynin gel, 72 hour treatment period): 157 ng·h/mL
- mean AUC ([3]; plasma, second period, first 24 hours after the final of 7 daily 3 g gel applications): 125 ng·h/mL
- time of maximum concentration after the final gel application [3, 7]: approximately 16 hours
- mean Cmax following the final gel application ([3]; second period: 7 consecutive daily 3 g gel applications, N-desethyloxybutynin: maximum for the 0-24 hour interval): 6.44 ng/mL
- mean plasma level at the initial peak [4, 8]: 2.21 ng/mL
- time at which measurable plasma levels were detectable [4, 8]: ≤ 2 h
- time of the initial plasma peak [4, 8]: 28 h
- plasma peak during the first 24 hours following dosing [4, 9]: 2.39 ng/mL
- Cmax ([4]; plasma N-desethyloxybutynin, 400 cm^2 application area): 2.72 ng/mL
- Cmax ([4]; plasma, 800 cm^2 application area): 3.40 ng/mL

Compound: CCN(CC)CC#CCOC(=O)C(O)(c1ccccc1)C1CCCCC1 (stereo not shown) [oxybutynin]
- Cmax ([1]; human, plasma, topical, healthy volunteers, read-out: mean maximum plasma concentration (Cmax)): 2.17 ng/mL
- half-life [1, 10]: ~1110 min
- time of second plasma peak after dosing [1]: approximately 48 hours
- time at which measurable plasma levels were detectable (first sampling point) ([1]; healthy volunteers): 2 h
- time over which mean plasma levels increased steadily to Cmax [1]: 24 h
- Cmax ([2]; human, topical, plasma, healthy volunteers): 1.17 ng/mL
- half-life [2, 10]: 1060 min
- time of second plasma peak after dosing [2]: approximately 48 hours
- time at which measurable plasma levels were detectable (first sampling point) ([2]; healthy volunteers): 2 h
- time over which mean plasma levels increased steadily to Cmax [2]: 26 h
- concentration at 24 h ([5]; plasma, 3 g of 4.4% oxybutynin gel, after the initial application of 3 g of 4.4% oxybutynin gel, read-out: plasma concentration at the 24 hour post-dose timepoint, mean±SD): 4.02 ± 2.19 ng/mL
- concentration at 24 h ([5]; plasma, 3 g of 4.4% oxybutynin gel, after the second daily application of 3 g of 4.4% oxybutynin gel, read-out: plasma concentration 24 hours after application, mean±SD): 4.47 ± 2.38 ng/mL
- concentration at 24 h ([5]; plasma, 3 g of 4.4% oxybutynin gel, after the third daily application of 3 g of 4.4% oxybutynin gel, read-out: plasma concentration at the 24 hour post-dose timepoint, mean±SD): 5.86 ± 3.17 ng/mL
- half-life ([5]; 3 g of 4.4% oxybutynin gel, plasma elimination after the third application of 4.4% oxybutynin gel, read-out: apparent half-life (converted)): ~1080 min
- Cmax ([5]; plasma, following the third application of 3 g of 4.4% oxybutynin gel, read-out: Cmax, mean±SD): 6.05 ± 3.21 ng/mL
- average plasma concentration during the 20 hours following the application ([3]; after the final of 7 daily 3 g gel applications): 6.22 ng/mL
- mean oxybutynin AUC higher than mean N-desethyloxybutynin AUC [3, 11]: ~41%
- mean oxybutynin Cmax higher than mean N-desethyloxybutynin Cmax [3, 11]: approximately 18%
- time within which measurable plasma levels were detectable [3, 11]: two
- Cmax ([3]; human, plasma, topical, 3 g of oxybutynin gel, once daily, second period: 7 consecutive daily 3 g gel applications, N-desethyloxybutynin: maximum for the 0-24 hour interval, read-out: mean Cmax following the final gel application): 9.01 ng/mL
- concentration at 0 h ([3]; human, plasma, topical, 3 g of oxybutynin gel, once daily, second period: 7 consecutive daily 3 g gel applications, read-out: mean plasma concentration at Time 0 of the final gel application): 4.63 ng/mL
- half-life ([3]; human, topical, 3 g of oxybutynin gel, once daily, plasma, after the final of 7 daily 3 g gel applications): ~1440 min
- AUC ([3]; human, topical, 3 g of oxybutynin gel, once daily, plasma, second period, first 24 hours after the final of 7 daily 3 g gel applications): 149 ng·h/mL
- AUC ([3]; human, topical, plasma, first period: single 3 g of 4.4% oxybutynin gel, 72 hour treatment period): 186 ng·h/mL
- half-life ([3]; human, topical, plasma, first period: single 3 g of 4.4% oxybutynin gel): ~1080 min
- mean Cmax [3, 6]: 6.35 ng/mL
- mean oxybutynin AUC higher than mean N-desethyloxybutynin AUC [3, 12]: ~19%
- mean oxybutynin Cmax higher than mean N-desethyloxybutynin Cmax [3, 12]: approximately 40%
- time of maximum concentration after the final gel application [3, 7]: approximately 23 hours
- time at which measurable plasma levels were detectable [4, 8]: 2 h
- time of the initial plasma peak [4, 8]: 24 h
- plasma peak during the first 24 hours following dosing [4, 9]: 2.92 ng/mL
- concentration at 24 hours ([4]; human, plasma, topical, 400 cm^2 application area, thighs, read-out: mean plasma level at the initial peak): 2.25 ng/mL
- Cmax ([4]; human, topical, plasma, 800 cm^2 application area, read-out: Cmax): 3.8 ng/mL

From US10272061B2, “Compositions and methods for unoccluded transdermal oxybutynin therapy” (Allergan Sales, LLC, priority 2000, dated 2019)
